Reference: PubChem BioAssay (NCI)
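Cells were grown in 96-well plates and exposed to each compound for 48 hours at five concentrations; endpoints were interpolated linearly between bracketing concentrations, or set to the highest concentration if not reached. The concentration for 50% growth inhibition is given as GI50. TGI: total growth inhibition.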

Tests used:
Experiment in all cases: inhibition of tumour cell growth, NCI panel, 48 h
IGROV1 ovarian = tested on: IGROV1 ovarian
RPMI-8226 leukemia = tested on: RPMI-8226 leukemia
OVCAR-5 ovarian = tested on: OVCAR-5 ovarian
MCF7 breast = tested on: MCF7 breast
NCI-H23 lung = tested on: NCI-H23 lung
UACC-62 melanoma = tested on: UACC-62 melanoma
NCI-H522 lung = tested on: NCI-H522 lung
786-0 renal = tested on: 786-0 renal
BT-549 breast = tested on: BT-549 breast
CAKI-1 renal = tested on: CAKI-1 renal
SW-620 colon = tested on: SW-620 colon
UO-31 renal = tested on: UO-31 renal
KM12 colon = tested on: KM12 colon
DU-145 prostate = tested on: DU-145 prostate
LOX IMVI melanoma = tested on: LOX IMVI melanoma
HCT-15 colon = tested on: HCT-15 colon
SK-MEL-5 melanoma = tested on: SK-MEL-5 melanoma
SR leukemia = tested on: SR leukemia
HCC-2998 colon = tested on: HCC-2998 colon
MDA-MB-468 breast = tested on: MDA-MB-468 breast
NCI-H460 lung = tested on: NCI-H460 lung
COLO 205 colon = tested on: COLO 205 colon
MDA-MB-231 breast = tested on: MDA-MB-231 breast
K-562 leukemia = tested on: K-562 leukemia
RXF 393 renal = tested on: RXF 393 renal
HCT-116 colon = tested on: HCT-116 colon
MDA-MB-435 = tested on: MDA-MB-435
A498 renal = tested on: A498 renal
SNB-75 CNS = tested on: SNB-75 CNS
MOLT-4 leukemia = tested on: MOLT-4 leukemia
NCI-H226 lung = tested on: NCI-H226 lung
EKVX NSCLC = tested on: EKVX NSCLC
PC-3 prostate = tested on: PC-3 prostate
HOP-62 NSCLC = tested on: HOP-62 NSCLC
HT29 colon = tested on: HT29 colon
CCRF-CEM leukemia = tested on: CCRF-CEM leukemia
SK-OV-3 ovarian = tested on: SK-OV-3 ovarian
SK-MEL-28 melanoma = tested on: SK-MEL-28 melanoma
OVCAR-3 ovarian = tested on: OVCAR-3 ovarian
SF-268 CNS = tested on: SF-268 CNS
HL-60(TB) leukemia = tested on: HL-60(TB) leukemia
ACHN renal = tested on: ACHN renal
SF-539 CNS = tested on: SF-539 CNS
SK-MEL-2 melanoma = tested on: SK-MEL-2 melanoma
U251 CNS = tested on: U251 CNS
UACC-257 melanoma = tested on: UACC-257 melanoma
OVCAR-8 ovarian = tested on: OVCAR-8 ovarian
T-47D breast = tested on: T-47D breast
HOP-92 NSCLC = tested on: HOP-92 NSCLC
OVCAR-4 ovarian = tested on: OVCAR-4 ovarian
SF-295 CNS = tested on: SF-295 CNS
A549 NSCLC = tested on: A549 NSCLC
HS 578T breast = tested on: HS 578T breast
MALME-3M melanoma = tested on: MALME-3M melanoma
M14 melanoma = tested on: M14 melanoma
SNB-19 CNS = tested on: SNB-19 CNS
SN12C renal = tested on: SN12C renal
TK-10 renal = tested on: TK-10 renal

COc1cc2cc(C(=O)N3C[C@@H](CCl)c4c3cc(OC(=O)N(CCC(=O)N3CCN(C)CC3)C3CCCCC3)c3ccccc43)[nH]c2c(OC)c1OC showed a GI50 (IGROV1 ovarian) of 2310 nM, a TGI (IGROV1 ovarian) of 7760 nM and a GI50 (RPMI-8226 leukemia) of 1470 nM. The TGI (RPMI-8226 leukemia) was 5080 nM, the GI50 (OVCAR-5 ovarian) was 5110 nM and the TGI (OVCAR-5 ovarian) was 27900 nM. The GI50 (MCF7 breast) was 318 nM, the TGI (MCF7 breast) was 2630 nM and the GI50 (NCI-H23 lung) was 471 nM. For the same molecule, the TGI (NCI-H23 lung) was 1930 nM, the GI50 (UACC-62 melanoma) was 1530 nM and the TGI (UACC-62 melanoma) was 3280 nM. The GI50 (NCI-H522 lung) was 1700 nM, the TGI (NCI-H522 lung) was 4530 nM and the GI50 (786-0 renal) was 1730 nM. For the same molecule, the TGI (786-0 renal) was 10100 nM, the GI50 (BT-549 breast) was 1590 nM and the TGI (BT-549 breast) was 4220 nM. It also gave a GI50 (CAKI-1 renal) of 1490 nM, a TGI (CAKI-1 renal) of 7650 nM and a GI50 (SW-620 colon) of 1890 nM. The TGI (SW-620 colon) was 12600 nM, the GI50 (UO-31 renal) was 1880 nM and the TGI (UO-31 renal) was 6340 nM. For the same molecule, the GI50 (KM12 colon) was 2070 nM, the TGI (KM12 colon) was 7250 nM and the GI50 (DU-145 prostate) was 456 nM. For the same molecule, the TGI (DU-145 prostate) was 4630 nM, the GI50 (LOX IMVI melanoma) was 1100 nM and the TGI (LOX IMVI melanoma) was 2760 nM. For the same molecule, the GI50 (HCT-15 colon) was 1730 nM, the TGI (HCT-15 colon) was 6710 nM and the GI50 (SK-MEL-5 melanoma) was 1640 nM. The TGI (SK-MEL-5 melanoma) was 3220 nM, the GI50 (SR leukemia) was 276 nM and the TGI (SR leukemia) was 1930 nM. It also gave a GI50 (HCC-2998 colon) of 1520 nM, a TGI (HCC-2998 colon) of 3480 nM and a GI50 (MDA-MB-468 breast) of 688 nM. The TGI (MDA-MB-468 breast) was 2290 nM, the GI50 (NCI-H460 lung) was 512 nM and the TGI (NCI-H460 lung) was 10700 nM. The GI50 (COLO 205 colon) was 1370 nM, the TGI (COLO 205 colon) was 2800 nM and the GI50 (MDA-MB-231 breast) was 3070 nM. It also gave a TGI (MDA-MB-231 breast) of 8630 nM, a GI50 (K-562 leukemia) of 677 nM and a TGI (K-562 leukemia) of 20300 nM. For the same molecule, the GI50 (RXF 393 renal) was 1060 nM, the TGI (RXF 393 renal) was 2460 nM and the GI50 (HCT-116 colon) was 1500 nM. For the same molecule, the TGI (HCT-116 colon) was 9940 nM, the GI50 (MDA-MB-435) was 1780 nM and the TGI (MDA-MB-435) was 3650 nM. For the same molecule, the GI50 (A498 renal) was 2770 nM, the TGI (A498 renal) was 5270 nM and the GI50 (SNB-75 CNS) was 1290 nM. The TGI (SNB-75 CNS) was 3700 nM, the GI50 (MOLT-4 leukemia) was 594 nM and the TGI (MOLT-4 leukemia) was 10100 nM. It also gave a GI50 (NCI-H226 lung) of 1440 nM, a TGI (NCI-H226 lung) of 4210 nM and a GI50 (EKVX NSCLC) of 1950 nM. For the same molecule, the TGI (EKVX NSCLC) was 5890 nM, the GI50 (PC-3 prostate) was 3140 nM and the TGI (PC-3 prostate) was over 100000 nM. For the same molecule, the GI50 (HOP-62 NSCLC) was 594 nM, the TGI (HOP-62 NSCLC) was 9110 nM and the GI50 (HT29 colon) was 1520 nM. It also gave a TGI (HT29 colon) of 4240 nM, a GI50 (CCRF-CEM leukemia) of 993 nM and a TGI (CCRF-CEM leukemia) of 12100 nM. For the same molecule, the GI50 (SK-OV-3 ovarian) was 2150 nM, the TGI (SK-OV-3 ovarian) was 9350 nM and the GI50 (SK-MEL-28 melanoma) was 3580 nM. For the same molecule, the TGI (SK-MEL-28 melanoma) was 8960 nM, the GI50 (OVCAR-3 ovarian) was 2100 nM and the TGI (OVCAR-3 ovarian) was 4670 nM. For the same molecule, the GI50 (SF-268 CNS) was 1540 nM, the TGI (SF-268 CNS) was 7450 nM and the GI50 (HL-60(TB) leukemia) was 751 nM. The TGI (HL-60(TB) leukemia) was 3730 nM, the GI50 (ACHN renal) was 493 nM and the TGI (ACHN renal) was 10700 nM. The GI50 (SF-539 CNS) was 1310 nM, the TGI (SF-539 CNS) was 3870 nM and the GI50 (SK-MEL-2 melanoma) was 1980 nM. For the same molecule, the TGI (SK-MEL-2 melanoma) was 3500 nM, the GI50 (U251 CNS) was 1510 nM and the TGI (U251 CNS) was 4460 nM. For the same molecule, the GI50 (UACC-257 melanoma) was 1990 nM, the TGI (UACC-257 melanoma) was 4630 nM and the GI50 (OVCAR-8 ovarian) was 1660 nM. For the same molecule, the TGI (OVCAR-8 ovarian) was 10100 nM, the GI50 (T-47D breast) was 1900 nM and the TGI (T-47D breast) was 6630 nM. It also gave a GI50 (HOP-92 NSCLC) of 2500 nM, a TGI (HOP-92 NSCLC) of 9460 nM and a GI50 (OVCAR-4 ovarian) of 2340 nM. It also gave a TGI (OVCAR-4 ovarian) of 6350 nM, a GI50 (SF-295 CNS) of 1550 nM and a TGI (SF-295 CNS) of 6790 nM. It also gave a GI50 (A549 NSCLC) of 1990 nM, a TGI (A549 NSCLC) of over 100000 nM and a GI50 (HS 578T breast) of 2420 nM. The TGI (HS 578T breast) was 7110 nM, the GI50 (MALME-3M melanoma) was 1570 nM and the TGI (MALME-3M melanoma) was 3050 nM. It also gave a GI50 (M14 melanoma) of 1520 nM, a TGI (M14 melanoma) of 4240 nM and a GI50 (SNB-19 CNS) of 2220 nM. The TGI (SNB-19 CNS) was 20000 nM, the GI50 (SN12C renal) was 1200 nM and the TGI (SN12C renal) was 10200 nM. It also gave a GI50 (TK-10 renal) of 2850 nM and a TGI (TK-10 renal) of 8530 nM.
